Data on four compounds can be found in BindingDB's records for PubMed 1650832 (Pfizer, 1991).

In the assay the target is T1, Cysteinyl leukotriene receptor 2 (Cavia porcellus, UniProt Q2NNR4).
T1 sequence (Q2NNR4 whole entry): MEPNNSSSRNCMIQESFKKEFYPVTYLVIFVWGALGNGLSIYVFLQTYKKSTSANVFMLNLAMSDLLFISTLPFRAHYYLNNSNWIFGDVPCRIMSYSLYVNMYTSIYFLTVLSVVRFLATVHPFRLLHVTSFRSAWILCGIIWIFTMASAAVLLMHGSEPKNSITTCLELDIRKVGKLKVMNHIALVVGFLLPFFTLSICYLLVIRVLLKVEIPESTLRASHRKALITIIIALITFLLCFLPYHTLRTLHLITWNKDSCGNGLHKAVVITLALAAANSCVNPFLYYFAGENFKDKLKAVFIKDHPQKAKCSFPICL

`COc1cc(C(=O)NS(=O)(=O)c2ccccc2)ccc1Cn1ncc2ccc(NC(=O)OC3CCCC3)cc21` returned a Ki of 6.89 nM.

The compound `CCCCC/C=C\C\C=C/C=C/C=C/[C@@H](SC[C@H](N)C(=O)NCC(=O)O)[C@@H](O)CCCC(=O)O` [5S-hydroxy-6R-(S-cysteinylglycinyl)-7E,9E,11E,14Z-eicosatetraenoic acid] came in with a Ki of 0.49 nM. This Ki is about 14-fold lower than that of the compound before.

Turning to `CCCCC/C=C\C\C=C/C=C/C=C/[C@@H](SC[C@H](N)C(=O)O)[C@@H](O)CCCC(=O)O` [(5S-(5R*,6S*(S*),7E,9E,11Z,14Z))-6-((2-Amino-2-carboxyethyl)thio)-5-hydroxy-7,9,11,14-eicosatetraenoic acid], the affinity corresponds to a Ki of 35.5 nM.

Compound `CCCCCC=CCC=CC=CC=CC(SCC(NC(=O)CCC(N)C(=O)O)C(=O)NCC(=O)O)C(O)CCCC(=O)O` (centres undefined) [CAS_5283121] showed an inhibition constant Ki of 178 nM.

One may read the Ki as the dissociation constant of the complex between target and ligand, obtained from inhibition or displacement.
